The values below come from ChEMBL document CHEMBL3044815, “Inhibitory effects on nuclear factor B of the Vietnamese freshwater cyanobacteria” (Med Chem Res, 2011).

One experiment concerns HeLa. Briefly: Cytotoxicity against Homo sapiens (human) HeLa cells after 48 hr by MTT assay. The experiment is classed as functional, cell-based. (Tetrazolium assays rely on reduction of a dye to a coloured formazan, in cell work by metabolically active cells.)
A short description of experiment [1]: Inhibition of TNFalpha-induced NF-kappaB activity (unknown origin) expressed in HeLa cells cotreated with compound and 10 ng/ml TNF-alpha for 24 hr by reporter gene assay. The experiment is classed as cell-based, Homo sapiens. Background: Reporter assays use an easily measured gene product as a stand-in for the process of interest.
Where [2] appears, read: Homo sapiens, HeLa, 24 h, read-out: IC50.

What is called IC50 is the concentration at which inhibition is half-maximal. For `CC[C@H](/C=C/[C@@H](C)[C@H]1CC[C@H]2[C@@H]3CC=C4C[C@@H](O)CC[C@]4(C)[C@H]3CC[C@]12C)C(C)C` [STIGMASTEROL], the Activity entry with HeLa was “Dose-dependent effect”. In experiment [1] (hela), the IC50 entry is reported as “Not Active”.

Regarding `CC(C)[C@@H](C)/C=C/[C@@H](C)[C@H]1CC[C@H]2C3=CC=C4C[C@@H](O)CC[C@]4(C)[C@H]3CC[C@]12C` [ERGOSTEROL], the Activity entry with HeLa was “Dose-dependent effect”. The IC50 in experiment [1] (setting [2]) came out at 0.91 µg/mL.

In the case of `CC[C@H](CC[C@@H](C)[C@H]1CC[C@H]2[C@@H]3CC=C4C[C@@H](O)CC[C@]4(C)[C@H]3CC[C@]12C)C(C)C` [BETA-SITOSTEROL], the Activity entry with HeLa was “Dose-dependent effect”. Also, the IC50 entry in experiment [1] (hela) is recorded as “Not Active”.

Turning to `CC1=C(O)C(=O)C=C2C1=CC=C1[C@@]2(C)CC[C@@]2(C)[C@@H]3C[C@](C)(C(=O)O)CC[C@]3(C)CC[C@]12C` [CELASTROL], in the experiment with HeLa, the Activity result is “Dose-dependent effect”. Also, the IC50 in experiment [1] (setting [2]) was determined as 0.72 µg/mL.
